From EP0598011B1, “ECDYSTEROID DEPENDENT REGULATION OF GENES IN MAMMALIAN CELLS” (GENENTECH, INC., priority 1991, dated 1993) come the findings set out here.

In one series the target is T1, GGG (Rattus norvegicus, UniProt P06536).
T1 sequence (P06536 1-795): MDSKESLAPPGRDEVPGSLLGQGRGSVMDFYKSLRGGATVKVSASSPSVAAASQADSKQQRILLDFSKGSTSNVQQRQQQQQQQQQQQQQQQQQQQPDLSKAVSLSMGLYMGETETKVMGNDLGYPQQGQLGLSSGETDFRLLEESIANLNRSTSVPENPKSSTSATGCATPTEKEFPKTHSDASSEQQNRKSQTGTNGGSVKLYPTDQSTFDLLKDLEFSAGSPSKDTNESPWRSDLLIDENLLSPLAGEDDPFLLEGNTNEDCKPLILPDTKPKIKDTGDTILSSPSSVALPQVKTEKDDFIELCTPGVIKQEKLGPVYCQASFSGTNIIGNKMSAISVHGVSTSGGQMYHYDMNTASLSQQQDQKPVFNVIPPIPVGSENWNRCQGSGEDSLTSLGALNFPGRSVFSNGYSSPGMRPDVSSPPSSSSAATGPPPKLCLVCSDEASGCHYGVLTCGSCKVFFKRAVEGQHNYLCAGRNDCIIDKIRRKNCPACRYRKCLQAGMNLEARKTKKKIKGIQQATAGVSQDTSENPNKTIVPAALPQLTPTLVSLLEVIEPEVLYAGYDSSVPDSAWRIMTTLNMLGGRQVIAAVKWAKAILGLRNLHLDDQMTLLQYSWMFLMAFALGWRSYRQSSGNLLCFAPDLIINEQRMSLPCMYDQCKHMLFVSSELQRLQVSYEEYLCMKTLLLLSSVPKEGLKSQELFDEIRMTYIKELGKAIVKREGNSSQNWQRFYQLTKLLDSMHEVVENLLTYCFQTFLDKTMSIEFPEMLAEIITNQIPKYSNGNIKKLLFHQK
Kind of series: Induction of GRE reporter G4M-77CO by GGG (glucocorticoid receptor) in 293 cells. As to conditions: normalized to hGH, SD in parentheses, 2880 min.

Series [1] has as its target T2, VXEc (Drosophila melanogaster, UniProt P34021).
T2 construct: expressed in transfected cells
T2 sequence (P34021 329-878): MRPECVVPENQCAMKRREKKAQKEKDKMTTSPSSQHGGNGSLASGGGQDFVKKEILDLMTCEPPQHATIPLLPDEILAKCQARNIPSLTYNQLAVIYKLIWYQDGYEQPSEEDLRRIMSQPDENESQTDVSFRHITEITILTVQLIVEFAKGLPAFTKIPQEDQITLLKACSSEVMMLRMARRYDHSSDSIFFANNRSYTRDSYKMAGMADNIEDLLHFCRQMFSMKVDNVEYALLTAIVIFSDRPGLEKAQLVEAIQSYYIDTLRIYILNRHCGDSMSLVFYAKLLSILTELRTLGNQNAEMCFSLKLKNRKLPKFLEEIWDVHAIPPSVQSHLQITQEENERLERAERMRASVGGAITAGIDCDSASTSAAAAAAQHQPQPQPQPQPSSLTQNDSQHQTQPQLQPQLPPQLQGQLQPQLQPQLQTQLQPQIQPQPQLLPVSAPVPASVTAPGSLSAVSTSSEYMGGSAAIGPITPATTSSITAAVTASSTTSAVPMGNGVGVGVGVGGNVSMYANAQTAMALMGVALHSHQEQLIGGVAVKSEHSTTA
Kind of series: Lex-operator reporter X4C-33CO with VXEc. It counts as cell-based. As to conditions: receptor VXEc, SD in parentheses. The source says:
(§1) Finally, I determined if the activity of DHR23α fusion proteins could be further enhanced by inclusion of a potent viral transactivation domain. I constructed VGEc and VLxEc fusion genes by replacing a portion of the GR N-terminal activation domain in GGEc and GLxEc, respectively, with the herpes virus VP16 acidic activation domain (I. Sadowski et al., […]. 335, 563 [1988]; D. J. Cousens, R. Greaves, C. R. Coding, and P. O'Hare, EMBO J. 8, 2337 [1989]) (Fig. 4A). In transfected cells, these proteins accumulated to similar levels as derivatives lacking the VP16 activation domain (Fig. 4B). Both VGEc and VLxEc acted in an ecdysteroid-dependent fashion to induce activity of the appropriate reporter gene (Tables 1 and 2). However, the activity of VGEc and VLxEc was 5 and 10 fold greater than GGEc and GLxEc, respectively (M..A. Labow, S.B. Baim, T. Shenk, and A. J. Levine, Mol. and Cell. Biol. 10, 3343 [1990]). Thus, the DHR23α ligand-binding domain can be used to regulate the activities of viral, mammalian and bacterial DNA-binding or transactivation domains.
(§2) Illustrated in Table 2 is the transcriptional activation by receptor-LexA fusion proteins. […] The cells were incubated either with (+) or without (-) muristerone A. The fold induction was determined as described previously; the standard deviations are shown in parenthesis.

The target of a further series is EcEcEc (Drosophila melanogaster, UniProt P34021). As to the kind of experiment: Induction of GRE reporter G4M-77CO by EcEcEc (DHR23α) in 293 cells. It is filed as cell-based. Details: To isolate the full-length DHR23α clones; expressed in transfected cells; host or cells: human 293 cells. As to conditions: receptor EcEcEc, normalized to hGH, SD in parentheses, 2880 min.

The next series deals with T3, GXEc (Drosophila melanogaster, UniProt P34021).
T3 construct: expressed in transfected cells
T3 sequence (P34021 329-878): T2 sequence (P34021 329-878)
Kind of series: Lex-operator reporter X4C-33CO with GXEc. It counts as cell-based. As to conditions: receptor GXEc, SD in parentheses. The source says: (§3) Such fusion constructs are expected to be useful in regulating the expression of exogenous genes introduced into transgenic mammals or mammalian cells. I next determined if the DHR23α ligand-binding domain could be used to regulate the activity of a DNA-binding domain not normally expressed in mammalian cells. I constructed the chimeric gene GLxEc by replacing the sequences coding for the GR DNA-binding domain in the GGEc fusion with those encoding the DNA-binding domain of the Escherichia coli LexA repressor (J. W. Little and S. A. Hill, Proc. Natl. Acad. Sci. U.S.A. 82, 2301 [1985]) (Fig. 4). A reporter gene, X4C-33CO was constructed that contains 4 copies of a 26-bp lex operator (R. Brent and M. Ptashne, Nature 312, 612 [1984]) at position -33 of the CMV promoter. GLxEc had no effect on the expression of a OC-33CO, a reporter gene lacking the lex operator (Fig. 6B).
(§4) Illustrated in Table 2 is the transcriptional activation by receptor-LexA fusion proteins. Effector plasmids encoding the indicated receptor proteins were transfected with a reporter gene either containing (X4C-33CO) or lacking (OC-33CO) lex-operators. […] The cells were incubated either with (+) or without (-) muristerone A. The fold induction was determined as described previously; the standard deviations are shown in parenthesis.

For another series, the target named is T4, VGEc (Drosophila melanogaster, UniProt P34021).
T4 construct: expressed in transfected cells; host or cells: 293 cells
T4 sequence (P34021 329-878): T2 sequence (P34021 329-878)
As to the kind of experiment: Induction of GRE reporter G4M-77CO by chimeric receptor VGEc in 293 cells. As to conditions: normalized to hGH, SD in parentheses. It is filed as cell-based.
From the text: as §1

In series [2] the target is T2, VXEc. As to the kind of experiment: Reporter OC-33CO lacking lex-operators with VXEc. It is filed as cell-based. As to conditions: receptor VXEc, SD in parentheses.
From the text: as §1, §2

A further series concerns X4C-33CO. As to the kind of experiment: Lex-operator reporter X4C-33CO, control effector plasmid without receptor cDNA. It counts as cell-based. As to conditions: SD in parentheses.
From the text: as §3, §4

What is called fold induction is the ratio of treated to control signal.

Chain of EcEcEc (P19793 whole entry): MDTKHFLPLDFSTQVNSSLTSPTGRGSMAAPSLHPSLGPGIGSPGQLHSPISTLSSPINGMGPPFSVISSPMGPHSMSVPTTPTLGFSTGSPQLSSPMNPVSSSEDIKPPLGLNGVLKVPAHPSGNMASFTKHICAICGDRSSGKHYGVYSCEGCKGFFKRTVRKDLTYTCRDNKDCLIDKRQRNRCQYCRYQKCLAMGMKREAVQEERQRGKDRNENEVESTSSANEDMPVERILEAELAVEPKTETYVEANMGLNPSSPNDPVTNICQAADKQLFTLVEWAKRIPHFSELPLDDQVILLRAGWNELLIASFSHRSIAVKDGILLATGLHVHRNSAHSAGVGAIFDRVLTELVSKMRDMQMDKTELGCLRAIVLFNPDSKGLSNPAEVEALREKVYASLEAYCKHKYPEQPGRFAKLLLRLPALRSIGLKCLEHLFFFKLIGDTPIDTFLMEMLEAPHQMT
Chain of EcEcEc (P34021 whole entry): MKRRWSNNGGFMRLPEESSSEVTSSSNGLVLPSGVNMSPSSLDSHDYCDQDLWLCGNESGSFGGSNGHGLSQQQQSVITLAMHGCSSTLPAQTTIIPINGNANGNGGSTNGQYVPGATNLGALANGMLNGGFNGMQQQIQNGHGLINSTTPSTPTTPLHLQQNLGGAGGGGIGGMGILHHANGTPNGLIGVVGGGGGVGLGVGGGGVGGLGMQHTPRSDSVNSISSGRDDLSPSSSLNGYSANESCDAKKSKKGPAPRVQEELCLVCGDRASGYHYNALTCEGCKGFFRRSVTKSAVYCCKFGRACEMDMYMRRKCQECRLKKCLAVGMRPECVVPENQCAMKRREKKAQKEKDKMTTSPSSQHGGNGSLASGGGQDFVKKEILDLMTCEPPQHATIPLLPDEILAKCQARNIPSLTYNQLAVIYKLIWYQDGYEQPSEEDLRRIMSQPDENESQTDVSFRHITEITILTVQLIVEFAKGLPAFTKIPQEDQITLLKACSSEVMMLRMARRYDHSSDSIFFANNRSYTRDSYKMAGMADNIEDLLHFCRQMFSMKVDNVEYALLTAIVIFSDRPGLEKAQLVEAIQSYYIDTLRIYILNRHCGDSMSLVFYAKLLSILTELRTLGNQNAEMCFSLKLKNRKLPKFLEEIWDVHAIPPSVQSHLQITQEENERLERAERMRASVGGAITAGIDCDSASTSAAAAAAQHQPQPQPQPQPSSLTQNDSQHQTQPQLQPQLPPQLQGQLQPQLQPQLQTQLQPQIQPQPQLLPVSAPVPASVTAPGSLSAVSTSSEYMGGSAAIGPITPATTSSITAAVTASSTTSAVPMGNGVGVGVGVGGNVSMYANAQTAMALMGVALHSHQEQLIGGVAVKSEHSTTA
Experimental for EcEcEc: "G" and "Ec" refer to the glucocorticoid receptor and DHR23α, respectively.
293 cells were transfected with effector plasmids encoding the indicated receptor proteins and the reporter gene G4M-77CO. These transfected cells were incubated either without added hormone (-), with muristerone A (M) or with dex (D).

Turning to `CC(C)CCC(O)[C@](C)(O)[C@H]1CC[C@@]2(O)C3=CC(=O)C4(O)CC(O)C(O)C[C@]4(C)[C@H]3C(O)C[C@]12C` (stereo partly shown) [muristerone A, 2,3,5,11,14,20,22-Heptahydroxy-7-cholesten-6-one], the fold induction is 1.0 (0.3) fold at GGG; 563 (61) fold on VXEc [1]; 0.9 (0.2) fold at EcEcEc; 44.3 (8.3) fold at GXEc; 3117 (240) fold at VGEc; 1.0 (0.2) fold on VXEc [2]. The fold induction with X4C-33CO is on record as 1.1 (0.3) fold.
